The values below come from PMC3904705, “In vivo monoubiquitination of anaplerotic phosphoenolpyruvate carboxylase occurs at Lys624 in germinating sorghum seeds” (Journal of Experimental Botany, 2013).

Read-outs that look alike come from different tables or passages of the source.

For series [1], the target named is T1, DeUB-PEPC (in vitro deubiquitinated p107 homotetrameric PEPC of germinating sorghum seeds; CP21) (Sorghum bicolor, UniProt P29195).
T1 construct: p107 homotetramer; not phosphorylated at Ser7
T1 sequence (P29195 1-960): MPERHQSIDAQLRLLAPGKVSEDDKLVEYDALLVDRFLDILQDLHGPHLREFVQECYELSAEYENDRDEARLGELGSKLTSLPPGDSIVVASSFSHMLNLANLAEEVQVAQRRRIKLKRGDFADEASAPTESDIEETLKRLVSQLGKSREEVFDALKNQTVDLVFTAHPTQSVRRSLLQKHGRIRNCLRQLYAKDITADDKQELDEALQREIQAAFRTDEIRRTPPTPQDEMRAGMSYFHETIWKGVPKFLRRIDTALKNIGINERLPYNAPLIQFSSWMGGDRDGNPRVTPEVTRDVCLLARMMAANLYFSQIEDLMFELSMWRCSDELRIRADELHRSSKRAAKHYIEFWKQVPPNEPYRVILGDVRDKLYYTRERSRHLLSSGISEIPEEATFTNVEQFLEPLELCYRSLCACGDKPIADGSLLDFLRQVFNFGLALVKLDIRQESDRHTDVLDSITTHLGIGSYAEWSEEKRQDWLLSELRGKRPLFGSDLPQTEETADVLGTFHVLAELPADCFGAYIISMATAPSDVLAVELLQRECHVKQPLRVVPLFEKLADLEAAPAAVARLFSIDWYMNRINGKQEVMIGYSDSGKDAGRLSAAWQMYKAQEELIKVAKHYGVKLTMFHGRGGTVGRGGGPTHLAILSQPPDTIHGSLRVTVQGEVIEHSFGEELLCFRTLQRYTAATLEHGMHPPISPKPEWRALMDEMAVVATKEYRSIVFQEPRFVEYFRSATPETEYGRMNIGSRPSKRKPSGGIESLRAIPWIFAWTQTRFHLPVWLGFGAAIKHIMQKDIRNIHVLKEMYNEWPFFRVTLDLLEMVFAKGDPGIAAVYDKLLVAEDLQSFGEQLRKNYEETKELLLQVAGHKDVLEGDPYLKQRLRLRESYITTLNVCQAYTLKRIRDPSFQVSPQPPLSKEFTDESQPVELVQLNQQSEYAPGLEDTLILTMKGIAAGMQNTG
The experiment in a line: biochemical. Further details: PEPC activity of purified enzyme with 2 mM metabolite effector at subsaturating 0.1 mM PEP, relative to control. As to conditions: pH 7.3, 0.1 mM PEP; for remaining activity at 2000 µM: read-out: % of control remaining. The procedure:
(§1) The impact of various metabolite effectors (2mM each) on the activity of the purified, monoubiquitinated heterotetrameric sorghum seed PEPC (UB-PEPC) versus the in vitro deubiquitinated homotetrameric enzyme (deUB-PEPC) was assessed using suboptimal assay conditions (0.1mM PEP, pH 7.3 and 8.0). With the exception of L-malate, monoubiquitination of germinating sorghum seed PEPC (CP21) exerted little to no influence in the response to the metabolites tested (Supplementary Table S2 at JXB online). […] In addition, the K m(PEP) value of UB-PEPC appeared to be slightly higher than that of deUB-PEPC, although the differences were not statistically significant (Table 1). Similarly, monoubiquitination of COS and harsh hakea Class-1 PEPCs is inhibitory, as it enhances sensitivity to allosteric inhibitors such as L-malate and L-aspartate, while interfering with the enzyme’s ability to bind PEP ([Uhrig et al., 2008]; [Shane et al., 2013]). Apparent K m and IC50 (concentration of inhibitor producing 50% inhibition) values were calculated using a computer kinetics program as previously described ([Tripodi et al., 2005]). All kinetic parameters are the means of three independent experiments and are reproducible to within ±15% (SE) of the mean value. Stock solutions of metabolites were made equimolar with MgCl2 and adjusted to pH 7.5.

In series [2] the target is T1, DeUB-PEPC (in vitro deubiquitinated p107 homotetrameric PEPC of germinating sorghum seeds; CP21). The experiment in a line: biochemical. The note with it: pH 8.0, 0.1 mM PEP; for remaining activity at 2000 µM: read-out: % of control remaining. Details: PEPC activity with 2 mM metabolite at subsaturating 0.1 mM PEP, as per cent of control. The procedure:
as §1

The target of series [3] is T2, UB-PEPC (purified monoubiquitinated p110:p107 heterotetrameric PEPC of germinating sorghum seeds; CP21) (Sorghum bicolor, UniProt P29195).
T2 construct: native, purified from 48 h germinated seeds, untagged; intact N-terminus, not phosphorylated at Ser7; heterotetramer ~460 kDa of p110 and p107 in equivalent ratio; p110 = p107 monoubiquitinated at Lys624
T2 sequence (P29195 1-960): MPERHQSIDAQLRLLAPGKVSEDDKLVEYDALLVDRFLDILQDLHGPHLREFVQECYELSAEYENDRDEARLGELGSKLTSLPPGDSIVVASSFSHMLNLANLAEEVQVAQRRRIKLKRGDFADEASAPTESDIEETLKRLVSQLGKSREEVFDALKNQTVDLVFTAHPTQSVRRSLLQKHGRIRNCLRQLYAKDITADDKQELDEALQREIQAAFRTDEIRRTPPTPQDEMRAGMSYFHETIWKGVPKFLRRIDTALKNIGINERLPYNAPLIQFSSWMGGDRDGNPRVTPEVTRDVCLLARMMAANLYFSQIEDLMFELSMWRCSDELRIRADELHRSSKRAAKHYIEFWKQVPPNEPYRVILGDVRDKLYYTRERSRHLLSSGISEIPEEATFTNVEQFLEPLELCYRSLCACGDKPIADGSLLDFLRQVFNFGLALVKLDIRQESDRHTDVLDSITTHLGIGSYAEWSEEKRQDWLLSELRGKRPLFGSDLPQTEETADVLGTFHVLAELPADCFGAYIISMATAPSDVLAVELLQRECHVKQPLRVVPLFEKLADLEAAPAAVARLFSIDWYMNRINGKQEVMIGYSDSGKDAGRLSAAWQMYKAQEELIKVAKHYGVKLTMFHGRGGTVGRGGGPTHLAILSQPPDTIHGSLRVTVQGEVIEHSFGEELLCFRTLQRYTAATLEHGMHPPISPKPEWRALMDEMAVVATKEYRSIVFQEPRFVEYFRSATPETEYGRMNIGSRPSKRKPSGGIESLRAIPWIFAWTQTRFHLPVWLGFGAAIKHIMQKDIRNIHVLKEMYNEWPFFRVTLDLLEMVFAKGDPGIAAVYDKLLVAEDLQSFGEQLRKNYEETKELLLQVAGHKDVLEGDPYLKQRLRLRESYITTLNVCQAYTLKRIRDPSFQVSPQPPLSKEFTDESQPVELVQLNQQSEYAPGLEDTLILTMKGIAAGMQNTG
The experiment in a line: biochemical. Details: PEPC activity of purified enzyme with 2 mM metabolite effector at subsaturating 0.1 mM PEP, relative to control. The note with it: pH 7.3, 0.1 mM PEP; read-out: % of control remaining. The procedure: as §1

For series [4], the target named is T2, UB-PEPC (purified monoubiquitinated p110:p107 heterotetrameric PEPC of germinating sorghum seeds; CP21). Nature of the series: biochemical. Further details: PEPC activity with 2 mM metabolite at subsaturating 0.1 mM PEP, as per cent of control. As to conditions: pH 8.0, 0.1 mM PEP; read-out: % of control remaining. The procedure: as §1
The target of series [5] is T1, DeUB-PEPC (in vitro deubiquitinated p107 homotetrameric PEPC of germinating sorghum seeds; CP21). Nature of the series: spectrophotometric, NADH at […] nm, coupled with malate dehydrogenase. The note with it: read-out: pH 7.3 / DeUB-PEPC. Type of series: biochemical.
The target of series [6] is p107, non-ubiquitinated 107 kDa plant-type PEPC (PTPC) subunit encoded by sorghum CP21 (Sorghum bicolor (endogenous in germinated seeds)) (UniProt P29195). The experiment in a line: SEC; Superdex-200 HR 16/60 gel filtration FPLC (calibrated column) of native PEPC purified from 48 h germinated sorghum seeds, in buffer E (50 mM HEPES-KOH pH 8.0, 5 mM MgCl2, 1 mM DTT, 20% glycerol, 100 mM KCl, phosphatase inhibitors); fractions immunoblotted with anti-COS PTPC; native molecular mass estimated as ~460 kDa.

Substrate in series [7]: C=C(OP(=O)(O)O)C(=O)O
Nature of the series: purified protein. The class given is biochemical, Sorghum bicolor. As to conditions: pH 8.0, 25 °C, 5 mM NaHCO3, 5 mM MgCl2, apparent Km, deubiquitinated enzyme.

Consider `Nc1ncnc2c1ncn2[C@@H]1O[C@H](COP(=O)(O)OP(=O)(O)OP(=O)(O)O)[C@@H](O)[C@H]1O` [ATP], for which the “% of control remaining” value in series [1] (2000 µM) came out at 88%; in series [2] (2000 µM), 111%.
As to `N[C@@H](CC(=O)O)C(=O)O` [Aspartate], the remaining activity at 2000 µM is 94% in series [3], 91% in series [1], 109% in series [4] and 109% in series [2].
Regarding `O=P(O)(O)OC1O[C@H](CO)[C@@H](O)[C@H](O)[C@H]1O` (stereo partly shown) [Glc-1-P], the remaining activity at 2000 µM in series [3] came out at 115%; in series [1] it was 111%; in series [4] it was 116%; in series [2], 116%.
Turning to `O=P(O)(O)OC[C@H]1OC(O)[C@H](O)[C@@H](O)[C@@H]1O` (stereo partly shown) [Glc-6-P], the remaining activity at 2000 µM is 127% in series [3], 112% in series [1], 121% in series [4] and 120% in series [2].
Taken in the same sequence, the figures for `O=P(O)(O)OCC(O)CO` (stereo not shown) [Glycerol-3-P] were 107%, 108%, 124% and 120%.
For `O=C(O)C[C@H](O)C(=O)O` [L-malate], in series [5], the IC50 turned out to be 3.62 ± 0.24 mM. Further, the remaining activity at 2000 µM amounted to 53% in series [3] and 67% in series [1].
Take `O=C(O)CC(O)C(=O)O` (stereo not shown) [Malate]: the remaining activity at 2000 µM in series [4] and in series [2] was 93% throughout.
In the case of `O=C[C@H](O)[C@H](O)[C@H](O)COP(=O)(O)O` [Ribose-5-P], the remaining activity at 2000 µM in series [3] turned out to be 98%; in series [1], 98%; in series [4] it was 105%; in series [2], 105%.
Take `O=C(O)C[C@H](C(=O)O)[C@@H](O)C(=O)O` [isocitrate]: the IC50 in series [5] turned out to be 1.37 ± 0.12 mM. Also, the remaining activity at 2000 µM was determined as 47% in series [3], 47% in series [1], 38% in series [4] and 38% in series [2].
In the case of “p110, 110 kDa plant-type PEPC (PTPC) subunit encoded by sorghum CP21, monoubiquitinated at Lys624 (from UniProt P29195 1-960) (enzyme)”, the stoichiometry N (subunits in the oligomer) in series [6] was 4.

B1: DeUB-PEPC (in vitro deubiquitinated p107 homotetrameric PEPC of germinating sorghum seeds; CP21) (Sorghum bicolor) (protein)
chain: MPERHQSIDAQLRLLAPGKVSEDDKLVEYDALLVDRFLDILQDLHGPHLREFVQECYELSAEYENDRDEARLGELGSKLTSLPPGDSIVVASSFSHMLNLANLAEEVQVAQRRRIKLKRGDFADEASAPTESDIEETLKRLVSQLGKSREEVFDALKNQTVDLVFTAHPTQSVRRSLLQKHGRIRNCLRQLYAKDITADDKQELDEALQREIQAAFRTDEIRRTPPTPQDEMRAGMSYFHETIWKGVPKFLRRIDTALKNIGINERLPYNAPLIQFSSWMGGDRDGNPRVTPEVTRDVCLLARMMAANLYFSQIEDLMFELSMWRCSDELRIRADELHRSSKRAAKHYIEFWKQVPPNEPYRVILGDVRDKLYYTRERSRHLLSSGISEIPEEATFTNVEQFLEPLELCYRSLCACGDKPIADGSLLDFLRQVFNFGLALVKLDIRQESDRHTDVLDSITTHLGIGSYAEWSEEKRQDWLLSELRGKRPLFGSDLPQTEETADVLGTFHVLAELPADCFGAYIISMATAPSDVLAVELLQRECHVKQPLRVVPLFEKLADLEAAPAAVARLFSIDWYMNRINGKQEVMIGYSDSGKDAGRLSAAWQMYKAQEELIKVAKHYGVKLTMFHGRGGTVGRGGGPTHLAILSQPPDTIHGSLRVTVQGEVIEHSFGEELLCFRTLQRYTAATLEHGMHPPISPKPEWRALMDEMAVVATKEYRSIVFQEPRFVEYFRSATPETEYGRMNIGSRPSKRKPSGGIESLRAIPWIFAWTQTRFHLPVWLGFGAAIKHIMQKDIRNIHVLKEMYNEWPFFRVTLDLLEMVFAKGDPGIAAVYDKLLVAEDLQSFGEQLRKNYEETKELLLQVAGHKDVLEGDPYLKQRLRLRESYITTLNVCQAYTLKRIRDPSFQVSPQPPLSKEFTDESQPVELVQLNQQSEYAPGLEDTLILTMKGIAAGMQNTG
notes: p107 homotetramer; not phosphorylated at Ser7
Consider B1, for which the Km in series [7] amounted to 36 ± 5 µM.

As a reminder, the Km is the concentration of substrate that gives half-maximal velocity.
